According to patent US20220340582A1, “CANNABINOID DERIVATIVES” (CANOPY GROWTH CORPORATION, priority 2019, published 2022):
Where two headings read alike, the source gives them in different places.

Tests used:
human CB1 receptor = biological target: T1, human CB1 receptor (Homo sapiens, UniProt P21554); test: CB1 radioligand competitive binding assay ([3H]CP 55,940 displacement)
T1 construct: host or cells: CHO-K1

human CB2 receptor = biological target: T2, human CB2 receptor (Homo sapiens, UniProt P34972); test: CB2 radioligand competitive binding assay ([3H]CP 55,940 displacement); details: for Selectivity CB2: fold difference between CB1 and CB2 binding, printed in the column of the receptor with the higher binding affinity
T2 construct: host or cells: CHO-K1
T2 sequence (P34972 whole entry): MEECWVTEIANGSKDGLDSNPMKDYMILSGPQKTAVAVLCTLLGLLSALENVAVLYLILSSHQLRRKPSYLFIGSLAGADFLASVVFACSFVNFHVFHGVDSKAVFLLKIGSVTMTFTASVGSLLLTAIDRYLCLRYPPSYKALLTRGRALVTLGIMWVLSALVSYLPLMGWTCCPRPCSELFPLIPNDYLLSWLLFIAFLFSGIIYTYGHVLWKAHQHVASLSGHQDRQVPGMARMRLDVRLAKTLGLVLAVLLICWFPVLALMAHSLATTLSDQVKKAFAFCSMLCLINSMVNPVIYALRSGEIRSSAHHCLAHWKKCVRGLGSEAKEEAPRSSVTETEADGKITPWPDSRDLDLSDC
Method: Compounds of the present disclosure were tested for CB1 receptor binding affinity and for CB2 receptor binding affinity. As used herein, “binding affinity” is represented by the IC50 value, which was experimentally determined as described herein. The lower the IC50 value the higher the binding affinity.
The membranes were prepared from CHO-K1 (Chinese hamster ovary) cells stably transfected with the human CB2 receptor (Cat. #ES-111-C; Perkin Elmer, Boston, Mass.). The cells were grown adherently and maintained in Ham's F12 medium containing 10% fetal bovine serum (FBS), penicillin, streptomycin and geneticin (G418) at 37° C. in a humid atmosphere of 5% CO2 following the manufacturer's instructions.
For membrane preparation the cells were washed with PBS and scraped off the plates in cold homogenization buffer (25 mM HEPES (pH 7.4), 2 mM EDTA) containing protease inhibitor cocktail (Sigma Cat. #P8340). The cell suspension was homogenized with a Pro-PK-01200D Polytron Homogenizer (Pro Scientific) and then centrifuged for 30 min at 120,000×g. The supernatant was discarded and the pellet was re-suspended in the homogenization buffer and stored at −80° C. until the time of use.
In this experiment, 3H radiolabeled CP 55,940, i.e. [3H]CP 55,940 (Perkin Elmer, Boston, Mass.), was used as a radioligand for the CB2 receptor to determine the binding affinity of compounds for the CB2 receptor (Scheme 4; above).
The competition binding experiments (single dose and dose-response) were performed by incubating 0.6 nM of [3H]CP55,940 (specific activity 101 Ci/mmol, Perkin Elmer) and different concentrations of compounds disclosed herein with membranes prepared as above from CHO-K1 cells expressing human CB2 receptor (1 μg of protein/well), 50 mM Tris-HCl (pH 7.4), 5 mM MgCl2, 1 mM CaCl2, and 2 mg/mL BSA.
For the dose-response experiments the test compounds were sequentially diluted to provide the desired concentration range for the IC50 determination. In each case the compounds were pre-incubated with the membrane for 20 min, before adding the radioligand.
After incubation with the radioligand for 60 min at 37° C., the incubation was terminated by rapid filtration of assay mixture through MultiScreen®HTS^+96-well filter plates (Millipore, Cat. #MSFCNXB), pre-soaked for 60 min with 50 mM Tris-HCl (pH 7.4) containing 0.33% polyethylenimine (PEI). The nonspecific binding (NSB) was determined in the presence of 10 μM unlabelled CP55,940. After drying the filter plate at 50° C. for at least 60 min, the filter-bound radioactivity was determined by scintillation spectrometry using the 1450 MicroBeta Plate Counter (Perkin Elmer, Boston, MA).

[1] = 0.8 nM [3H]CP 55,940, CHO-K1 membranes expressing human CB1 receptor, dose-response, read-out: CB1 IC50
[2] = 0.6 nM [3H]CP55,940, CHO-K1 membranes expressing human CB2 receptor, dose-response, read-out: CB2 IC50

T1 sequence (P21554 whole entry): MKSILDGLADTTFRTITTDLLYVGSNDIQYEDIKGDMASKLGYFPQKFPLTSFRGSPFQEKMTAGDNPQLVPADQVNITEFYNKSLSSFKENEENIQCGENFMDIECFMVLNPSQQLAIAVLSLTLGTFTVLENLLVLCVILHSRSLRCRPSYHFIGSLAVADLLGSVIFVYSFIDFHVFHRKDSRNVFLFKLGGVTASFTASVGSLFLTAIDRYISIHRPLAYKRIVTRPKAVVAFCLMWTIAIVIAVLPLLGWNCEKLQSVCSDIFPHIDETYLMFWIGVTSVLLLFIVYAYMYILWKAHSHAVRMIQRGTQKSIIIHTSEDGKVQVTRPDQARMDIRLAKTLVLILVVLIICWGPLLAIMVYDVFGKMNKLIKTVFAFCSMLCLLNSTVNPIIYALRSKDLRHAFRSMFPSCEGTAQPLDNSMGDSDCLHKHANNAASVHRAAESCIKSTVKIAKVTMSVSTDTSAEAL

Structure (SMILES)	IC50 (human CB1 receptor; [1]) [nM]	IC50 (human CB2 receptor; [2]) [nM]	Selectivity CB2 (human CB2 receptor) [fold]	IC50 (human CB1 receptor) [nM]	IC50 (human CB2 receptor) [nM]	Selectivity CB1 (human CB1 receptor; fold difference between CB1 and CB2 binding, printed in the column of the receptor with the higher binding affinity) [fold]
CCCCCc1cc2c(c(O)c1C(=O)NCc1cccnc1)[C@@H]1C=C(C)CC[C@H]1C(C)(C)O2 [Compound 15b, 1-hydroxy-6,6,9-trimethyl-3-pentyl-N-(pyridin-3-ylmethyl)-6a,7,8,10a-tetrahydro-6H-benzo[c]chromene-2-carboxamide]	> 1000	< 100	19.07			
CCCCCc1cc2c(c(O)c1C(=O)Nc1ccccc1)[C@@H]1C=C(C)CC[C@H]1C(C)(C)O2 [Compound 10b, 1-hydroxy-6,6,9-trimethyl-3-pentyl-N-phenyl-6a,7,8,10a-tetrahydro-6H-benzo[c]chromene-2-carboxamide]	< 100	< 100	8.81			
CCCCCc1cc2c(c(O)c1C(=O)N1CCOCC1)[C@@H]1C=C(C)CC[C@H]1C(C)(C)O2 [Compound 39b, (1-hydroxy-6,6,9-trimethyl-3-pentyl-6a,7,8,10a-tetrahydro-6H-benzo[c]chromen-2-yl)(morpholino)methanone]			1.53	100 to 490	100 to 490	
CCCCCc1cc2c(c(O)c1C(=O)N1CCCC1)[C@@H]1C=C(C)CC[C@H]1C(C)(C)O2 [Compound 41b, (1-hydroxy-6,6,9-trimethyl-3-pentyl-6a,7,8,10a-tetrahydro-6H-benzo[c]chromen-2-yl)(pyrrolidin-1-yl)methanone]			2.06	100 to 490	100 to 490	
CCCCCc1cc2c(c(O)c1C(=O)N1Cc3ccccc3C1)[C@@H]1C=C(C)CC[C@H]1C(C)(C)O2 [Compound 43b, (1-hydroxy-6,6,9-trimethyl-3-pentyl-6a,7,8,10a-tetrahydro-6H-benzo[c]chromen-2-yl)(isoindolin-2-yl)methanone]			8.33	> 1000	100 to 490	
CCCCCc1cc2c(c(O)c1C(=O)NC1CC1)[C@@H]1C=C(C)CC[C@H]1C(C)(C)O2 [Compound 6b, N-cyclopropyl-1-hydroxy-6,6,9-trimethyl-3-pentyl-6a,7,8,10a-tetrahydro-6H-benzo[c]chromene-2-carboxamide]			9.08	100 to 490	< 100	
CCCCCc1cc2c(c(O)c1C(=O)N1CCN(C(C)=O)CC1)[C@@H]1C=C(C)CC[C@H]1C(C)(C)O2 [Compound 36b, 1-(4-(1-hydroxy-6,6,9-trimethyl-3-pentyl-6a,7,8,10a-tetrahydro-6H-benzo[c]chromene-2-carbonyl)piperazin-1-yl)ethan-1-one]				> 1000	> 1000	1.10
CCCc1cc2c(c(O)c1C(=O)NC)[C@@H]1C=C(C)CC[C@H]1C(C)(C)O2 [Compound 58b, 1-hydroxy-N,6,6,9-tetramethyl-3-propyl-6a,7,8,10a-tetrahydro-6H-benzo[c]chromene-2-carboxamide]			6.87	> 1000	> 1000	
CCCCCc1cc2c(c(O)c1C(=O)NCC)[C@@H]1C=C(C)CC[C@H]1C(C)(C)O2 [Compound 3b, N-ethyl-1-hydroxy-6,6,9-trimethyl-3-pentyl-6a,7,8,10a-tetrahydro-6H-benzo[c]chromene-2-carboxamide]			3.33	500 to 990	100 to 490	
CCCCCc1cc2c(c(O)c1C(=O)N(CC)CC)[C@@H]1C=C(C)CC[C@H]1C(C)(C)O2 [Compound 50b, N,N-diethyl-1-hydroxy-6,6,9-trimethyl-3-pentyl-6a,7,8,10a-tetrahydro-6H-benzo[c]chromene-2-carboxamide]			4.38	100 to 490	< 100	
